Test results: patent US20120231482A1, “METHOD, KIT OR DIAGNOSTIC FOR THE DETECTION OF REAGENTS WHICH INDUCE ALTERED CONTRACTILITY” (THE JOHNS HOPKINS UNIVERSITY, priority 2009, published 2012)

Legend:
α actinin = assay: Modified biotin switch assay, sites of HNO modification; assay type: biochemical, rat; conditions: for number of independent observations of peptide: Cys 889, tryptic peptide ELPPDQAQYCIKR, 25 μM NCA or 500 μM AS; for Position of modified Cys: α-Actinin, Table 2
Procedure: (§1) Rat myofibrillar preparations, as described in [7], were obtained from frozen ventricles (Pel Freez Biologicals) minced in 20 volumes/tissue weight of 4° C. relax buffer (SRB (75 mM KCL, 10 mM imidazole pH 7.2, 2 mM MgCl2) plus 4 mM phosphocreatine, 1 mM ATP, 50 mM BDM, 1 mM benzamidine-HCL, 0.1 mM PMSF, 1 μg/ml leupeptin, 1 μg/ml pepstatin, 1% (v/v) Trixon X-100) and adjusted to 10 mM EDTA. Minced preparations were centrifuged for 8 min at 3000xg and the supernant was decanted. Resulting pellets were resuspended in 10 volumes of SRB plus 1% Triton X-100 and subjected to 6 strokes in a Duall tissue homogenizer and centrifuged as above. Pellets were gently resuspended and centrifuged as above twice more in SRB including 1% (v/v) Triton X-100, twice in SRB lacking Triton X-100 and once in K-60 buffer (60 mM KCL, 20 mM MOPS, 2 mM MgCl2 pH 7) before being resuspended in 5 volumes of K-60.
(§2) Detection of HNO modifications by Modified Biotin Switch. HNO modified thiols were detected using a modification to the standard biotin switch protocol. In brief, 100 μg of rat myofibrils/treatment were diluted to 0.5 μg/μl in HEN (250 mM HEPES pH 7.7, 1 mM EDTA and 0.1 mM neocuproine) including 0.1% (w/v) SDS and exposed to a treatment for 10 min at 37° C. which was subsequently removed by acetone precipitation. Remaining free thiols were blocked by addition of 300 μl of HEN including 2.5% (w/v) SDS and 20 mM N-ethylmaleimide (NEM), incubated for 20 min at 50° C. Excess NEM was removed by acetone precipitation. HNO and/or NO modified thiols were reduced using 5 mM DTT or 1 mM ascorbate in 150 μl of HEN including 1% (w/v) SDS and biotinylated with 0.8 mM Biotin-HPDP (Pierce) for one hour at room temperature. Excess biotin-HPDP was removed by acetone precipitation (2 volumes) and resultant pellets were carefully washed with an additional volume of acetone. Biotinylated proteins were resuspended in 1 ml of HEN including 0.1% (w/v) SDS and captured by incubation with 15 μl of washed, packed Ultralink Immobilized Streptavidin (Pierce) for one hour at room temperature. Beads were washed four times in 50 bead volumes of HEN (twice including 0.1% (w/v) SDS, twice including 600 mM NaCl) and twice with EB (20 mM HEPES pH 7.7, 100 mM NaCl, 1 mM EDTA). Captured proteins were eluted with 40 μl of EB containing 100 mM DTT, mixed with 15 μl of 4×LDS sample buffer, boiled, separated by SDS PAGE and silver stained. For MS studies, biotinylated proteins were digested overnight with trypsin (Promega) prior to capture and washed ten additional times with 5 mM ammonium bicarbonate/20% acetonitrile before being eluted in 100 μl of wash buffer including 100 mM DTT as described. Captured peptides were identified using a LTQ linear ion trap tandem mass spectrometer (ThermoFinnigan, Waltham Mass. USA) with data searched against the rat IPI primary sequence database using the sorcerer searching platform (sagen).
(§3) To investigate the modifications that underlie the difference seen in the functional effect of these two compounds we performed an analysis on the myofilament proteins, using a modified biotin-switch method, followed by mass spectrometry for identification (FIG. 3). Following treatment with HNO or control compounds, unmodified cysteines are blocked with NEM before treatment with a reducing agent and labeling the exposed cysteines with a biotin group (FIG. 3A). In this case, 5 mM DTT was used as the reducing agent because it was shown in the physiological studies to reverse the effect of the treatment. […] Tryptic or chymotryptic peptides containing the modified cysteine residues were captured and identified by LC/MS/MS. […] To parse the role of candidate sites of modification between these two effects a comparative proteomics experiment was designed where modifications specific to NCA treatment would be considered candidates for the Ca^2+ effect while sites identified in common between AS and NCA could be candidates for the force effect (FIG. 3C). […]

myosin heavy chain α/β = assay: as above; assay type: biochemical, rat; conditions: for number of independent observations of peptide: 25 μM NCA or 500 μM AS; for Position of modified Cys: myosin heavy chain (α/β), Table 2
Procedure: as §1, §2, §3

Structure (SMILES) | number of independent observations of peptide (α actinin) | Position of modified Cys (α actinin) | number of independent observations of peptide (myosin heavy chain α/β; Cys 907, chymotryptic peptide ADAEERCDQL) | Position of modified Cys (myosin heavy chain α/β) | number of independent observations of peptide (myosin heavy chain α/β; Cys 1750, tryptic peptide MDADLSQLQTEVEEAVQECR)
[Na+].[Na+].[O-][N+]([O-])=NO [AS, Angeli's Salt] | 3 | 889 | 2 | 907(α/β) | –
CC(=O)OC1(N=O)CCCCC1 [NCA, 1-nitrosocyclohexylacetate] | 2 | 889 | – | 1750(α/β) | 2
